Test system: A549 cells (human lung cancer cells)
Experimental: The cytotoxicity of ε-polylysines, the coating material used in the invention, to A549 cells (human lung cancer cells, obtained from ATCC) was evaluated. The cytotoxicity to ε-polylysine hydrochloride (Chisso Corp.) was compared with that to α-polylysine hydrobromide (Wako Pure Chemical, average molecular weight 15,000).
A549 cells were seeded on a 96-well microplate at a density of 1×10^4 cells/well. After culturing overnight at 37° C. under 5% CO2 using DME medium (containing 10% bovine embryonic serum), the medium was removed with an aspirator, and 40 μL each of fresh medium 1.25 times more concentrated as standard was added to each well. Finally 10 μL each of a polylysine salt solution that would eventually attain the specified concentration, and cultured at 37° C. for 3 hours.
After the 3-hour culture, the medium was removed again by an aspirator, 100 μL/well of fresh medium was added, and culture continued for 46 hours. The medium was still once more replaced by 110 μL of fresh medium, 10 μL each of Cell Counting Kit-8 (Dojindo Laboratories) was added and continued to be cultured for 2 hours at 37° C. for color reaction. A plate reader (Thermo Labsystems Multiskan Ascent BIF) was used to determine the absorbance at 450 nm (with 650 nm as a reference) and calculate the viability of the cells.

α-polylysine hydrobromide
viability of the cells (FIG. 5): no difference
